The text below walks through data of PubChem BioAssay AID256 (DTP/NCI, 2004).

This assay concerns CD2F1 mice, L1210 leukemia ip, survival T/C. The experiment in a line: NCI In Vivo Anticancer Drug Screen. Data for tumor model L1210 Leukemia (intraperitoneal) in CD2F1 (CDF1) mice. The following applies: higher = longer survival. In a few lines:
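Implant tumor; dose compound or vehicle; measure endpoint in both groups; report treated divided by control.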

Where [1] appears, read: endpoint: mean survival time, dose: 100.0 mg/kg/injection, schedule: Q01DX001 (ip), vehicle: saline with Tween-80.
[2] abbreviates: endpoint: mean survival time, dose: 200.0 mg/kg/injection, schedule: Q01DX001 (ip), vehicle: saline with Tween-80.
Where [3] appears, read: endpoint: mean survival time, dose: 400.0 mg/kg/injection, schedule: Q01DX001 (ip), vehicle: saline with Tween-80.
Where [4] appears, read: endpoint: mean survival time, dose: 100.0 mg/kg/injection, schedule: Q01DX009 (ip), vehicle: saline with Tween-80.
The mark [5] stands for this setting: endpoint: mean survival time, dose: 200.0 mg/kg/injection, schedule: Q01DX009 (ip), vehicle: saline with Tween-80.
[6] abbreviates: endpoint: mean survival time, dose: 400.0 mg/kg/injection, schedule: Q01DX009 (ip), vehicle: saline with Tween-80.
Setting [7] is: endpoint: mean survival time, dose: 100.0 mg/kg/injection, schedule: Q04DX003 (ip), vehicle: saline with Tween-80.
[8] abbreviates: endpoint: mean survival time, dose: 200.0 mg/kg/injection, schedule: Q04DX003 (ip), vehicle: saline with Tween-80.
The mark [9] stands for this setting: endpoint: mean survival time, dose: 400.0 mg/kg/injection, schedule: Q04DX003 (ip), vehicle: saline with Tween-80.
[10] abbreviates: endpoint: mean survival time, dose: 3.12 mg/kg/injection, schedule: Q01DX009 (ip), vehicle: Klucel (hydroxypropylcellulose) (HPC).
Setting [11] is: endpoint: mean survival time, dose: 6.25 mg/kg/injection, schedule: Q01DX009 (ip), vehicle: Klucel (hydroxypropylcellulose) (HPC).
Where [12] appears, read: endpoint: mean survival time, dose: 12.5 mg/kg/injection, schedule: Q01DX009 (ip), vehicle: Klucel (hydroxypropylcellulose) (HPC).
Where [13] appears, read: endpoint: mean survival time, dose: 25.0 mg/kg/injection, schedule: Q01DX009 (ip), vehicle: Klucel (hydroxypropylcellulose) (HPC).
The mark [14] stands for this setting: endpoint: mean survival time, dose: 50.0 mg/kg/injection, schedule: Q01DX009 (ip), vehicle: saline with Tween-80.
[15] abbreviates: endpoint: mean survival time, dose: 100.0 mg/kg/injection, schedule: Q01DX009 (ip), vehicle: Klucel (hydroxypropylcellulose) (HPC).

Molecules are shown by their SMILES. Where “and” joins values, the source holds several entries; their conditions need not be identical. Identical values can stand only once. Inconclusive results and toxic doses are left out.

`CCCCNS(=O)(=O)c1cn(CCCC)c(=O)[nH]c1=O`: the T/C runs as follows: (endpoint: mean survival time, dose: 37.5 mg/kg/injection, schedule: Q01DX001 (ip), vehicle: saline with Tween-80) 100 % of control; (endpoint: mean survival time, dose: 150.0 mg/kg/injection, schedule: Q01DX001 (ip), vehicle: saline with Tween-80) 96 % of control; (endpoint: mean survival time, dose: 175.0 mg/kg/injection, schedule: Q01DX001 (ip), vehicle: saline with Tween-80) 100 % of control.

`Sc1ccc(Cl)cc1`: the T/C by setting is: under setting [1], 98 % of control; under setting [2], 98 % of control; under setting [3], 102 % of control.

Turning to `C[N+](C)(C)c1ncnc2c1ncn2C1CCCO1` (stereo not drawn), the T/C is, setting by setting: (endpoint: mean survival time, dose: 12.5 mg/kg/injection, schedule: Q01DX009 (ip), vehicle: saline) 93 % of control; (endpoint: mean survival time, dose: 25.0 mg/kg/injection, schedule: Q01DX009 (ip), vehicle: saline) 98 % of control; (endpoint: mean survival time, dose: 50.0 mg/kg/injection, schedule: Q01DX009 (ip), vehicle: saline) 112 % of control; (endpoint: mean survival time, dose: 100.0 mg/kg/injection, schedule: Q01DX009 (ip), vehicle: saline) 101 % of control.

Consider `COc1ccc(C2=Nc3cccc4c3N(CCC4)C2c2ccc(OC)cc2)cc1` (stereo not drawn), for which the T/C reads like this: (endpoint: mean survival time, dose: 100.0 mg/kg/injection, schedule: Q04DX003 (ip), vehicle: other) 96 % of control; (endpoint: mean survival time, dose: 200.0 mg/kg/injection, schedule: Q04DX003 (ip), vehicle: other) 96 % of control; (endpoint: mean survival time, dose: 400.0 mg/kg/injection, schedule: Q04DX003 (ip), vehicle: other) 94 % of control.

For the compound `O=c1[nH]cnc2n[nH]c(Br)c12`, the T/C (endpoint: median survival time, dose: 50.0 mg/kg/injection, schedule: Q01DX005 (ip), vehicle: saline with Tween-80) is 107 % of control; the T/C (endpoint: median survival time, dose: 100.0 mg/kg/injection, schedule: Q01DX005 (ip), vehicle: saline with Tween-80) is 111 % of control; the T/C (endpoint: median survival time, dose: 200.0 mg/kg/injection, schedule: Q01DX005 (ip), vehicle: saline with Tween-80) is 119 % of control.

Turning to `O=C(O)CC1CCC(CC(=O)O)CC1` (stereo not drawn), the T/C reads like this: under setting [4], 101 % of control; under setting [5], 104 % of control; under setting [6], 101 % of control.

On to `Cc1ccc(NC(=O)Nc2cccc(NC(=O)COc3ccc(Cl)cc3C(=O)O)c2)cc1S(=O)(=O)F`, for which the T/C was 88 % of control under setting [1], 86 % of control under setting [2] and 89 % of control under setting [3].

With `O=C(CCl)c1cccnc1C(=O)O`, the T/C under setting [7] was 98 % of control.

As to `O=C1NC(c2ccccc2)C([N+](=O)[O-])=C1O` (stereo not drawn), the T/C was 101 % of control (endpoint: mean survival time, dose: 100.0 mg/kg/injection, schedule: Q01DX009 (ip), vehicle: saline sonified); 101 % of control under setting [4]; 98 % of control (endpoint: mean survival time, dose: 200.0 mg/kg/injection, schedule: Q01DX009 (ip), vehicle: saline sonified); 95 % of control under setting [5]; 102 % of control (endpoint: mean survival time, dose: 400.0 mg/kg/injection, schedule: Q01DX009 (ip), vehicle: saline sonified); 97 % of control under setting [6].

Consider `Cc1cc(-c2nnc(-c3ccc(O)c(C)c3)nn2)ccc1O`, for which the T/C under setting [7] was 97 % of control, the T/C under setting [8] is 89 % of control and the T/C under setting [9] was 92 % of control.

In the case of `N#CN1CCC2CC3(CCC2C1)OCCO3` (stereo not drawn), the T/C is, setting by setting: (endpoint: mean survival time, dose: 100.0 mg/kg/injection, schedule: Q01DX001 (ip), vehicle: saline) 96 % of control; (endpoint: mean survival time, dose: 200.0 mg/kg/injection, schedule: Q01DX001 (ip), vehicle: saline) 91 % of control; (endpoint: mean survival time, dose: 400.0 mg/kg/injection, schedule: Q01DX001 (ip), vehicle: saline) 96 % of control.

With `ClCCN(CCCl)c1ccc(CCN2CCCCC2)cc1`, the T/C was 106 % of control under setting [10]; 106 % of control under setting [11]; 121 % of control and 108 % of control under setting [12]; 118 % of control under setting [13].

`O=C(CNC(=O)NCc1ccco1)N/N=C/c1cccc([N+](=O)[O-])c1`: the T/C is 92 % of control under setting [14], 88 % of control under setting [4] and 103 % of control under setting [5].

For `C=C[CH2][Sn]([CH2]C=C)([c]1ccccc1)[c]1ccccc1`, the T/C runs as follows: (endpoint: mean survival time, dose: 6.25 mg/kg/injection, schedule: Q01DX009 (ip), vehicle: saline with Tween-80) 89 % of control; (endpoint: median survival time, dose: 25.0 mg/kg/injection, schedule: Q04DX002 (ip), vehicle: saline with Tween-80) 112 % of control.

Turning to `Cc1ccc(NC(=O)Nc2ccccc2Cl)c(C)c1`, the T/C was 102 % of control under setting [7], 90 % of control under setting [8] and 93 % of control under setting [9].

On to `CC(C)CC(=O)NC(C(=O)NC(C(=O)NC(CC(C)C)C(O)CC(=O)NC(C)C(=O)NC(CC(C)C)C(O)CC(=O)O)C(C)C)C(C)C` (stereo not drawn), for which the T/C runs as follows: under setting [10], 96 % of control; under setting [11], 100 % of control; under setting [12], 96 % of control; under setting [13], 100 % of control; (endpoint: mean survival time, dose: 50.0 mg/kg/injection, schedule: Q01DX009 (ip), vehicle: Klucel (hydroxypropylcellulose) (HPC)) 94 % of control; under setting [15], 97 % of control.

For `[Cl][Sb]([c]1ccccc1)([c]1ccccc1)([c]1ccccc1)[c]1ccccc1`, the T/C is 98 % of control (endpoint: mean survival time, dose: 4.7 mg/kg/injection, schedule: Q04DX003 (ip), vehicle: saline) and 102 % of control (endpoint: mean survival time, dose: 9.4 mg/kg/injection, schedule: Q04DX003 (ip), vehicle: saline).

For the compound `c1ccc2c(c1)CN(C1CCCCC1)CO2`, the T/C runs as follows: under setting [14], 98 % of control; under setting [4], 97 % of control; under setting [5], 97 % of control.

On to `CC[n+]1c(-c2ccccc2)c2cc(N)ccc2c2ccc(N)cc21`, for which the T/C (endpoint: mean survival time, dose: 1.0 mg/kg/injection, schedule: Q01DX009 (ip), vehicle: water) is 106 % of control; the T/C (endpoint: mean survival time, dose: 2.0 mg/kg/injection, schedule: Q01DX009 (ip), vehicle: water) was 112 % of control; the T/C (endpoint: mean survival time, dose: 2.5 mg/kg/injection, schedule: Q01DX005 (ip), vehicle: water) is 101 % of control; the T/C (endpoint: mean survival time, dose: 4.0 mg/kg/injection, schedule: Q01DX009 (ip), vehicle: water) was 116 % of control; the T/C (endpoint: mean survival time, dose: 5.0 mg/kg/injection, schedule: Q01DX005 (ip), vehicle: water) was 105 % of control; the T/C (endpoint: mean survival time, dose: 8.0 mg/kg/injection, schedule: Q01DX009 (ip), vehicle: water) was 122 % of control. In addition, the T/C was 114 % of control (endpoint: mean survival time, dose: 10.0 mg/kg/injection, schedule: Q01DX005 (ip), vehicle: water) and 104 % of control (endpoint: mean survival time, dose: 16.0 mg/kg/injection, schedule: Q01DX009 (ip), vehicle: water).

Regarding `CCOC(=O)CC1(C)C(=O)NC(=O)N1C(C)=O` (stereo not drawn), the T/C is 105 % of control under setting [1]; 103 % of control under setting [4]; 97 % of control under setting [2]; 103 % of control under setting [5]; 94 % of control under setting [3]; 116 % of control under setting [6].

As to `CN(Cc1cnc2nc(N)nc(N)c2n1)c1ccc(C(=O)NC(CCC(=O)O)C(=O)NC(CCC(=O)O)C(=O)O)cc1` (stereo not drawn), the T/C (endpoint: mean survival time, dose: 1.0 mg/kg/injection, schedule: Q01DX009 (ip), vehicle: sodium bicarbonate) is 105 % of control; the T/C (endpoint: mean survival time, dose: 2.0 mg/kg/injection, schedule: Q01DX009 (ip), vehicle: sodium bicarbonate) is 100 % of control; the T/C (endpoint: mean survival time, dose: 5.0 mg/kg/injection, schedule: Q01DX009 (ip), vehicle: sodium bicarbonate) was 102 % of control; the T/C (endpoint: mean survival time, dose: 25.0 mg/kg/injection, schedule: Q01DX009 (ip), vehicle: sodium bicarbonate) was 167 % of control.

In the case of `COc1cc2c(cc1OC)C(CCN)NCC2` (stereo not drawn), the T/C by setting is: under setting [1], 97 % of control; under setting [2], 100 % of control; under setting [3], 94 % of control.

Take `NS(=O)(=O)c1ccc(N=Cc2ccccc2O)cc1`: the T/C is 95 % of control under setting [4], 89 % of control under setting [5] and 86 % of control under setting [6].

On to `CC(=O)OC1C(OC(C)=O)C(OC(C)=O)C(OS(C)(=O)=O)C(OC(=O)c2ccccc2)C1OC(C)=O` (stereo not drawn), for which the T/C under setting [15] was 96 % of control; the T/C (endpoint: mean survival time, dose: 200.0 mg/kg/injection, schedule: Q01DX009 (ip), vehicle: Klucel (hydroxypropylcellulose) (HPC)) is 86 % of control; the T/C (endpoint: mean survival time, dose: 400.0 mg/kg/injection, schedule: Q01DX009 (ip), vehicle: Klucel (hydroxypropylcellulose) (HPC)) was 91 % of control.

Regarding `CCCCCCCCCCCCCCCCCCCCCC(CC)CC`, the T/C by setting is: under setting [1], 101 % of control; under setting [2], 107 % of control; under setting [3], 103 % of control.
